Entries after “also recorded” stand apart in the source; their conditions may differ. Square brackets hold non-standard residues; d marks the D form. Primed or numbered codes have the meaning given here. Ends that are not written are not given here. * marks the point of attachment. PE = 4-azidoproline (Pz) joined by click reaction (1,2,3-triazole) to NS; Biotin = O=C1N[C@H]2[C@H](CS[C@H]2CCCCC(=O)*)N1; PEG12′ = not defined here
How the values were obtained:
PC12 cells = experiment: Neurite outgrowth assay (GDNF-mediated neuritogenesis); conditions: 72 h; for effect on neuritogenesis: added to culture media, 20 μM, untreated cells
Description: PC12 cells were maintained in T75 tissue culture flasks in RPMI 1640 medium (ATCC® 30-2001) supplemented with 10% heat-inactivated horse serum (HI-HS, Gibco 26050-088), 5% fetal bovine serum (FBS, Gibco 26170-043) and 1% penicillin/streptomycin (Gibco 15140-122). Stock cultures from liquid nitrogen were grown at 37° C. with 5% CO2 in a humidified chamber for a minimum of 72 hr before experiments. Cells were seeded on 13 mm round glass coverslips (Paul Marienfeld 0111530). The coverslips were pretreated with 65% nitric acid for three days, washed with distilled water, 70% ethanol and 100% ethanol thrice each for 30 minutes with gentle rocking and then dried in a cell culture hood overnight under UV. For cell attachment, the treated coverslips were coated with laminin (25 μg/mL in PBS; Sigma L2020) at 37° C. for 1 hr, washed thrice with PBS, and then placed at the bottom of a 24-well plate for cell seeding. For all experiments, cells were cultured in RPMI 1640 differentiation media containing 1% HI-HS.
PC12 cells were first harvested and incubated in differentiation media or differentiation media supplemented with 30 μM of DPPE-(PE)12-NS for 2 h. After incubation, the cells were centrifuged and rinsed twice with fresh differentiation medium and then seeded onto laminin-coated coverslips at a density of 100 cells/mm^2. After allowing the cells to attach for 1 hr at 37° C., the medium was replaced with fresh differentiation medium supplemented with 200 ng/mL GDNF and 1 μg/mL GFRα1. As additional controls, (PE)12-NS or NS were further added to the supplemented medium to a final concentration of 20 μM for untreated cells. After 72 h, the cells were fixed with 4% paraformaldehyde solution (Tokyo Chemical Industry 30525-89-4 in PBS) for 15 minutes at room temperature and then rinsed with PBS. Bright-field images were taken using an Olympus IX71 Inverted Microscope at 20× magnification under phase contrast. For each condition, 400-500 randomly selected single cells were counted. The percentage of neurite-bearing cells was determined by counting the number of cells with neurites longer than the cell body. Experiments were repeated three times and done in duplicate each time.

GDNF [1] = target: GDNF (Homo sapiens, UniProt P39905)
Description: (§1) SPR measurements were performed using a Biacore T100 system (GE Healthcare). The CM5 sensor chip was primed with HBS-EP+ buffer (10 mM HEPES pH 7.4, 150 mM NaCl, 3.4 mM EDTA, 0.005% P20, GE Healthcare) and was activated using the standard amine-coupling protocol (1:1 mixture of 0.4 M EDC and 0.1M NHS). 0.008 mg/ml of streptavidin solution in 10 mM sodium acetate buffer (Acetate 5.0, GE Healthcare) was conjugated and remaining activated groups were quenched with 1 M ethanolamine solution (pH 8.5). The final amount of streptavidin covalently immobilized on the surface was typically 700 RU. Flow cell 1 (or 3) was used as a reference to subtract nonspecific binding, drift, and the bulk refractive index, while flow cell 2 (or 4) was further immobilized with GAG mimetic agents or natural polysaccharides. […] Immobilized amount is normalized by a molecular weight. For a given affinity measurement, varying amount of protein solutions were successively injected into the flow cells for 240 seconds of contact time and 800 seconds of dissociation time using a flow rate of 50 μL/min at 25° C. Flow cell was regenerated using 2.5 M MgCl2 at 30 μL/min. Association (ka) and dissociation (kd) rate constants were calculated with a 1:1 binding model using Biacore evaluation software, and KD values were calculated from the ratio of kd to ka. Kinetic parameters were obtained by fitting curves to a 1:1 Langmuir model with baseline correction.
(§2) With the non-saccharide glycosaminoglycan mimetics in hand, SPR was employed to facilitate quantitative, real-time kinetic analysis of non-saccharide glycosaminoglycan mimetic binding to GDNF and GFRα1.

GFRα1 [2] = target: GFRα1 (Homo sapiens, UniProt P56159)
Description: as §1, §2

P-selectin [3] = target: T1, P-selectin (Homo sapiens, UniProt P16109); experiment: SPR binding to P-selectin; conditions: distributed vs single facial conformation
T1 sequence (P16109 42-830): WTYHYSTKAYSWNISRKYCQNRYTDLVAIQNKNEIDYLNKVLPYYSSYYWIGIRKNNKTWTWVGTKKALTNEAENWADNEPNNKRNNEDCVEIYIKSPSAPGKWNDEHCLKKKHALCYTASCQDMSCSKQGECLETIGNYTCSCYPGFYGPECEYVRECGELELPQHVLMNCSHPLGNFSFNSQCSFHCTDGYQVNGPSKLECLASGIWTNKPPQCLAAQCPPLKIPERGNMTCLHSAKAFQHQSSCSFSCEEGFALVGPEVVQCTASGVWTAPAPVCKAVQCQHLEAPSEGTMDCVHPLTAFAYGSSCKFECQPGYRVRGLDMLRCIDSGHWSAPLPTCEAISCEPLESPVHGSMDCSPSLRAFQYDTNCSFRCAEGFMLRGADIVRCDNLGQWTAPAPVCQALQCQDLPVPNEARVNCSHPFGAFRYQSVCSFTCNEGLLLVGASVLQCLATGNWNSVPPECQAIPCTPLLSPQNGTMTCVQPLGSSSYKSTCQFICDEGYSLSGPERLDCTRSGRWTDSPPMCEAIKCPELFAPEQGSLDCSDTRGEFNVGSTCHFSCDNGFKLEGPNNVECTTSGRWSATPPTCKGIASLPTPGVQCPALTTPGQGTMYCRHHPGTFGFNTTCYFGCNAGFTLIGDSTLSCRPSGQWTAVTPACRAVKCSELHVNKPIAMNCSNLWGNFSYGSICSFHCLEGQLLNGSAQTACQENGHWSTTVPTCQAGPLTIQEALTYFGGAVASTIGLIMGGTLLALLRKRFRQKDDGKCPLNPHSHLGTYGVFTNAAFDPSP
Description: as §1, with “Kinetic parameters were obtained by fitting curves to a 1:1 Langmuir model with baseline correction.” left out

Factor Xa = experiment: BIOPHEN Heparin Anti-Xa assay in the presence of anti-thrombin; type: biochemical; conditions: at concentrations as high as 300 ug/ml, anti-thrombin present
Excerpt: (§3) One common drawback hampering the clinical application of negatively charged glycomimetics is the potentially hazardous tendency to activate anti-thrombin, which in turn severely impairs the ability of blood coagulation factors (e.g. Factor Xa and IIa) in the final common pathway to orchestrate blood coagulation. To verify the safety and clinical potential of the engineered non-saccharide glycomimetics of tunable spatial conformation, the effect of (PE)12-NS and heparin on the activity of blood coagulation factors, Factor Xa and IIa in the presence of anti-thrombin, was assessed. This assessment was performed using BIOPHEN Heparin Anti-Xa and Anti-IIa assays (Aniara) where the inhibitory effect of anti-thrombin on Factor Xa and IIa was determined by the ability of the factors to catalyze the hydrolysis of factor-specific chromogenic substrates. […] The use of spatial conformation to present key chemical motifs toward selectins is therefore specific and independent of other proteins that could lead to undesirable consequences if concomitant enhanced binding were to be seen.

Factor IIa = experiment: BIOPHEN Heparin Anti-IIa assay in the presence of anti-thrombin; type: biochemical; conditions: at concentrations as high as 300 ug/ml, anti-thrombin present
Excerpt: as §3

[4] = system: B16F10 murine melanoma cells bound to P-selectin-coated surfaces; experiment: Adhesion of calcein-labeled tumor cells to immobilized P-selectin; type: cell-based; conditions: B16F10 cells on P-selectin-coated surfaces
Description: As such, it was examined if the strong binding affinity of (PE)12-NS toward P-selectin could translate into inhibition of P-selectin-mediated adhesion of tumor cells. To do so, recombinant P-selectin chimera protein with a Fc region was immobilized on Protein A-coated surfaces. The adhesion of calcein-labeled B16F10 murine melanoma cells to these surfaces in the presence of heparin or (PE)12-NS was then visualized (FIG. 16A) and quantified by fluorescence microplate reader (FIG. 16B).

[5] = target: recombinant P-selectin chimera protein with a Fc region; experiment: cell-based or functional assay
P-selectin [6] = target: T2, P-selectin; experiment: SPR (Biacore T100), biotinylated mimetic on streptavidin chip, selectin injected
T2 chain: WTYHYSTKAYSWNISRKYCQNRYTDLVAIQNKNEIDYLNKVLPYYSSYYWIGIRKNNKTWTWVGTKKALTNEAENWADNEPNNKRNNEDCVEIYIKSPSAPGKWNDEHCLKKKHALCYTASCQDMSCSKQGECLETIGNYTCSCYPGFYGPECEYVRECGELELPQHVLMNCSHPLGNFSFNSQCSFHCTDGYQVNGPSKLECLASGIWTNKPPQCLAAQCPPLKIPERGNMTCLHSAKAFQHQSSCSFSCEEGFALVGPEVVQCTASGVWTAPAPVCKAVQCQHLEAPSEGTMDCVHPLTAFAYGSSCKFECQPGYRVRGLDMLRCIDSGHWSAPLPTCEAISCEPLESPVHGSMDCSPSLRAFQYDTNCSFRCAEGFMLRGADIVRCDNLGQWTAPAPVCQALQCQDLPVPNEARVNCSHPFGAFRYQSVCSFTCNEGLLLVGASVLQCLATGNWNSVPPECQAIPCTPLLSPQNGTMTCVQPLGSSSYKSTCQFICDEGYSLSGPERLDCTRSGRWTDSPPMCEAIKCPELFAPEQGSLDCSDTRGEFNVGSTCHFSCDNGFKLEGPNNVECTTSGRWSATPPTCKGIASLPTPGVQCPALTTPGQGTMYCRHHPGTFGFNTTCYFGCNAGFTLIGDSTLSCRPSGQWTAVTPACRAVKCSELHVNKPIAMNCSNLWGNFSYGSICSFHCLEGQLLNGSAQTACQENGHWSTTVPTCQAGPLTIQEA

GFRα1 [7] = experiment: SPR (Biacore T100), biotinylated mimetic on streptavidin CM5 chip, protein injected, 1:1 model
GDNF [8] = target: T3, GDNF; experiment: as above
T3 chain: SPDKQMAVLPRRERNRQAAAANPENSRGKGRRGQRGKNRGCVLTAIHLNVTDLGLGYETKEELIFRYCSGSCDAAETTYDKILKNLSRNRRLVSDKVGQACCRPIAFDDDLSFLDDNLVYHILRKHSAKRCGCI

[9] = GDNF, SPR, 1:1 binding model, 25° C.
[10] = SPR sensorgrams, 0.2-1.0 nM protein
[11] = GFRα1, SPR, 1:1 binding model, 25° C.

Sequence of GDNF (Homo sapiens, UniProt P39905) (P39905 76-211, species assumed): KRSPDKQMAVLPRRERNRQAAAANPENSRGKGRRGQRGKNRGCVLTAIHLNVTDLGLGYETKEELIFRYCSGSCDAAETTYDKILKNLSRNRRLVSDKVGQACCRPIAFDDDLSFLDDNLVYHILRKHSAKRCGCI
Sequence of GFRα1 (Homo sapiens, UniProt P56159) (P56159 25-429, species assumed): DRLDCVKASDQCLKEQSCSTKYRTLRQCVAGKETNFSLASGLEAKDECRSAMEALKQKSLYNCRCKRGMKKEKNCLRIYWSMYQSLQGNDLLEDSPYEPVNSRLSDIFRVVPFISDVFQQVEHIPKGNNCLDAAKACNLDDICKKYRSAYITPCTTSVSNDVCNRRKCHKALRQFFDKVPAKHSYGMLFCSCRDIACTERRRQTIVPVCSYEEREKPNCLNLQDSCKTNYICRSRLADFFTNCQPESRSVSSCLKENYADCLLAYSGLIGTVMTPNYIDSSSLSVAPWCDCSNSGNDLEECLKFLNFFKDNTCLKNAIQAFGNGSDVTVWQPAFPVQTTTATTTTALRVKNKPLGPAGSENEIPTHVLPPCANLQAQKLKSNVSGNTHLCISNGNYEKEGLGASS

In the case of pent-4-yne-1,2-diyl bis(sulfate) [NS], the “effect on neuritogenesis” value (PC12 cells; GDNF and GFRα1) is reported as “No significant effect; also recorded: no discernable effect”.

For DPPE-(PE)12-NS (PPPPPPPPPPPP), the “percentage of neurite-bearing cells” value (PC12 cells; cells pre-incubated with 30 μM for 2 h, 200 ng/mL GDNF and 1 μg/mL GFRα1, control 16%) was 45% and the “neurite length” value (PC12 cells; cells pre-incubated with 30 μM for 2 h, GDNF and GFRα1) was “marked increase”.

With COC(=O)[C@@H]1C[C@@H](n2cc(CC(COS(=O)(=O)O)OS(=O)(=O)O)nn2)CN1C(=O)[C@@H]1C[C@@H](n2cc(CC(COS(=O)(=O)O)OS(=O)(=O)O)nn2)CN1C(=O)[C@@H]1C[C@@H](n2cc(CC(COS(=O)(=O)O)OS(=O)(=O)O)nn2)CN1C(=O)[C@@H]1C[C@@H](n2cc(CC(COS(=O)(=O)O)OS(=O)(=O)O)nn2)CN1C(=O)[C@@H]1C[C@@H](n2cc(CC(COS(=O)(=O)O)OS(=O)(=O)O)nn2)CN1C(=O)[C@@H]1C[C@@H](n2cc(CC(COS(=O)(=O)O)OS(=O)(=O)O)nn2)CN1C(=O)[C@@H]1C[C@@H](n2cc(CC(COS(=O)(=O)O)OS(=O)(=O)O)nn2)CN1C(=O)[C@@H]1C[C@@H](n2cc(CC(COS(=O)(=O)O)OS(=O)(=O)O)nn2)CN1C(=O)[C@@H]1C[C@@H](n2cc(CC(COS(=O)(=O)O)OS(=O)(=O)O)nn2)CN1C(=O)[C@@H]1C[C@@H](n2cc(CC(COS(=O)(=O)O)OS(=O)(=O)O)nn2)CN1C(=O)[C@@H]1C[C@@H](n2cc(CC(COS(=O)(=O)O)OS(=O)(=O)O)nn2)CN1C(=O)[C@@H]1C[C@@H](n2cc(CC(COS(=O)(=O)O)OS(=O)(=O)O)nn2)CN1C(=O)CCOCCOCCOCCOCCOCCOCCOCCOCCOCCOCCOCCOCCNC(=O)CCCC[C@@H]1SC[C@@H]2NC(=O)N[C@@H]21 (stereo partly drawn) [(PE)12-NS] the kd (GDNF [1]; [9]) was 2.12 (± 0.07) × 10^−3 S^−1, the kα (GDNF [1]; [9]) was 6.42 (± 0.28) × 10^5 M^−1S^−1 and the “binding affinity to GDNF (comparison in words)” value (GDNF [1]; [10]) was “far higher binding affinity”. The kd (GFRα1 [2]; [11]) was 4.9 (± 1.7) × 10^−2 S^−1, the kα (GFRα1 [2]; [11]) was 4.26 (± 0.90) × 10^5 M^−1S^−1 and the “binding affinity to GFRα1 (comparison in words)” value (GFRα1 [2]; [10]) was “far higher binding affinity”. For the same molecule, the “binding affinity to P-selectin (comparison in words)” value (P-selectin [3]) was “stronger binding affinity”, the “activity of Factor Xa” value (Factor Xa) was “remained unaffected” and the “activity of Factor IIa” value (Factor IIa) was “remained unaffected”. The “concentration from which near-complete inhibition of adhesion is achieved” value [4] was ≥ 0.6 µg/mL, the “effect on neuritogenesis” value (PC12 cells; GDNF and GFRα1) was “Complete inhibition” and the “effect on neuritogenesis” value (PC12 cells; GDNF and GFRα1, listed as biotin-(PE)12-NS) was “completely inhibited neuritogenesis”.

B1: Biotin-(PE)12-NS (peptide)
peptide: {Biotin-PEG12′}-[PE][PE][PE][PE][PE][PE][PE][PE][PE][PE][PE][PE]
modifications: also: CO2CH3 methyl ester seen in NMR
notes: Non-saccharide glycosaminoglycan mimetic on a polyproline type II helix, with NS on all three faces; The biotinylated form was immobilised on streptavidin for SPR; also called distributed design; distributed conformation
For B1, the IC50 of inhibition of adhesion of calcein-labeled B16F10 murine melanoma cells to immobilized P-selectin [5] was 0.18 µg/mL, the near-complete inhibition of adhesion of B16F10 cells to immobilized P-selectin [5] was > 0.6 µg/mL and the Kd (P-selectin [6]) was 6 nM. The Kd (GFRα1 [7]) was 116 nM, the koff (GFRα1 [7]) was 0.049 s⁻¹ and the kon (GFRα1 [7]) was 426000 M⁻¹ s⁻¹. It also gave a Kd (GDNF [8]) of 3.3 nM, a koff (GDNF [8]) of 0.00212 s⁻¹ and a kon (GDNF [8]) of 642000 M⁻¹ s⁻¹.

Source: patent publication US20200291079A1, “ENGINEERING STRUCTURALLY DEFINED NON-SACCHARIDE GLYCOSAMINOGLYCAN MIMETICS VIA A POLYPROLINE SCAFFOLD” (AGENCY FOR SCIENCE, TECHNOLOGY AND RESEARCH, priority 2015, published 2020)
